A word on the inhibition: it is the percentage by which the read-out fell short of the control. As usually defined, the Ki is the equilibrium dissociation constant of an inhibitor or competing ligand from its target.

One experiment concerns the target human orexin 1 receptors (Homo sapiens (Human), UniProt O43613). As to the kind of experiment: Calcium Accumulation in Cells (FLIPR), antagonism of orexin A. The class given is cell-based. The note with it: for inhibition at 10 µM: measured at a concentration of 10 μM of compound, read-out: FLIPR hOx1R % inhibition value; for Ki: antagonism of orexin A, Cheng-Prusoff corrected, read-out: FLIPR hOx1R Ki. Here is the method:
(§1) Calcium Accumulation in Cells (FLIPR):
Cells expressing human orexin 1 or human orexin 2 receptors, were seeded at 8,000 cells/well in 384 well black-walled clear bottom, poly-D-lysine coated plates. After 24 h, the medium was removed and cells were washed once with phosphate buffered saline and serum-deprived overnight in assay buffer (130 mM NaCl, 5.4 mM KCl, 1.8 mM CaCl2, 0.8 mM MgSO4, 0.9 mM NaH2PO4, 25 mM glucose, 20 mM HEPES, pH 7.4) containing bovine serum albumin (1% w/v).
On the day of the experiment, the cells seeded in black plates were treated with assay buffer containing the Ca^2+ sensitive fluorescent dye Fluo4-AM (2 μM), and probenecid (0.1 mM). After 1 h plates were washed twice with, and resuspended in, assay buffer containing probenecid (0.1 mM) using a multi plate washer. The plates were placed into a FLIPR II (Fluorometric Imaging Plate Reader, Molecular Devices, Sunnyvale, Calif., USA) and baseline fluorescence (fluorescence light units, FLU) was measured (5 measurements, 2 S each; laser excitation 488 nm at 0.6-1 W, CCD camera exposure 0.4 s) before addition of buffer alone (basal) or containing test compounds (either compound of formula (I) or (I′) alone, agonist alone or agonist in the presence of various concentrations of compounds of formula (I) or (I′)). Fluorescence measurements were then continued every 1 S for 120 S followed by every 4 S for 240 S.
(§2) The measurements were typically made in two sequences:
(§3) In the first round, compounds of formula (I) or (I′) were tested alone, to detect possible agonist activity. Compounds of formula I or I′ were tested usually in a concentration range from 10^−9 M to 10^−5 M.
(§4) In the second round, performed one hour later (to allow for equilibration), Orexin A was tested either in the absence (calibration curves, Orexin A agonist controls) or in the presence of compounds of formula (I) or (I′) to determine antagonism.

Another experiment concerns the target human orexin 2 receptors (Homo sapiens (Human), UniProt O43614). The experiment is described as above. The class given is cell-based. The note with it: for Ki: antagonism of orexin A, Cheng-Prusoff corrected, read-out: FLIPR hOx2R Ki; for inhibition at 10 µM: measured at a concentration of 10 μM of compound, read-out: FLIPR hOx2R % inhibition value. How it is done: as §1
Cells expressing human orexin 1 or human orexin 2 receptors, were seeded at 8,000 cells/well in 384 well black-walled clear bottom, poly-D-lysine coated plates.
On the day of the experiment, the cells seeded in black plates were treated with assay buffer containing the Ca^2+ sensitive fluorescent dye Fluo4-AM (2 μM), and probenecid (0.1 mM). After 1 h plates were washed twice with, and resuspended in, assay buffer containing probenecid (0.1 mM) using a multi plate washer. […] Fluorescence measurements were then continued every 1 S for 120 S followed by every 4 S for 240 S.
as §2, §3, §4

human orexin 1 receptors, sequence (O43613 whole entry): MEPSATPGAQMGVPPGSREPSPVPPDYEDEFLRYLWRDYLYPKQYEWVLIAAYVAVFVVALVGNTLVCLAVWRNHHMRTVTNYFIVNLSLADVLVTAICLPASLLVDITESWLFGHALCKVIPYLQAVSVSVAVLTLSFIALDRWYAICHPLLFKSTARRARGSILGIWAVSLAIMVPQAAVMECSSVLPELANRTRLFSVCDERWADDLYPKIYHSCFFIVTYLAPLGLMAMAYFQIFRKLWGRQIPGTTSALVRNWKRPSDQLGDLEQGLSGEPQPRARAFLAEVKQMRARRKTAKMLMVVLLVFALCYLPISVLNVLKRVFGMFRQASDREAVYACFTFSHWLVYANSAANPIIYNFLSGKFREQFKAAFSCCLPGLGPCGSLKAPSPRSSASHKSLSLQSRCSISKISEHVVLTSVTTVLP
human orexin 2 receptors, sequence (O43614 whole entry): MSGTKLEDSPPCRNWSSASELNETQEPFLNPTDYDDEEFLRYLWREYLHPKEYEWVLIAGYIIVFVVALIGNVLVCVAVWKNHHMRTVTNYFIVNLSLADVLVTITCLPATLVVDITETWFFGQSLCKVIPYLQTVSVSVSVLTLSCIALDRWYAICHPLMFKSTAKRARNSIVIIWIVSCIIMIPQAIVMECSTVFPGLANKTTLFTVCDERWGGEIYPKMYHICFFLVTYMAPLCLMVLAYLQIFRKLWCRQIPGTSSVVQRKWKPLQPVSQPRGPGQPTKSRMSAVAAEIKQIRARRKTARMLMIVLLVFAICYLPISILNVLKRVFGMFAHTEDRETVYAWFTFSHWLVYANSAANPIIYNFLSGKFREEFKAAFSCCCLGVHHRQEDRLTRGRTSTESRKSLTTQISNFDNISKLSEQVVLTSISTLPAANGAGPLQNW

With `Cc1ccc(C(C)NC(=O)COc2cc(C(F)F)c3c(C4CC4)nn(C)c3n2)cn1` (stereo not drawn) [Example 6.19, 2-(3-cyclopropyl-4-(difluoromethyl)-1-methyl-1H-pyrazolo[3,4-b]pyridin-6-yloxy)-N-(1-(6-methylpyridin-3-yl)ethyl)acetamide], on human orexin 1 receptors, the inhibition at 10 µM is 41%. Besides, the Ki on human orexin 2 receptors was determined as 0.8 µM. As to `Cc1cccc(C(C)NC(=O)COc2cc(C)c3c(C4CC4)nn(C)c3n2)c1` (stereo not drawn) [Example 7.29, 2-(3-cyclopropyl-1,4-dimethyl-1H-pyrazolo[3,4-b]pyridin-6-yloxy)-N-(1-m-tolylethyl)acetamide], the Ki on human orexin 1 receptors was 1.8 µM; on human orexin 2 receptors, 0.9 µM. Take `Cc1cnc2c(c1)CC[C@@H]2NC(=O)COc1cc(C)c2c(C3CC3)nn(C)c2n1` [Example 6.65, (S)-2-(3-cyclopropyl-1,4-dimethyl-1H-pyrazolo[3,4-b]pyridin-6-yloxy)-N-(3-methyl-6,7-dihydro-5H-cyclopenta[b]pyridin-7-yl)acetamide]: at human orexin 1 receptors, the inhibition at 10 µM is under 10%. The Ki at human orexin 2 receptors was 0.825 µM. On the same counts, the results for `Cc1cc(OCC(=O)N[C@H]2CCc3ccccc32)nc2c1c(C1CC1)nn2C` [Example 1.75, (S)-2-(3-cyclopropyl-1,4-dimethyl-1H-pyrazolo[3,4-b]pyridin-6-yloxy)-N-(2,3-dihydro-1H-inden-1-yl)acetamide] are 27% and 0.809 µM. For the molecule `C[C@H](NC(=O)COc1cc(C(F)(F)F)c2c(-c3cccc(Cl)c3)nn(C)c2n1)c1ccccc1` [Example 1.57, (S)-2-(3-(3-chlorophenyl)-1-methyl-4-(trifluoromethyl)-1H-pyrazolo[3,4-b]pyridin-6-yloxy)-N-(1-phenylethyl)acetamide], the values for the Ki at human orexin 1 receptors and at human orexin 2 receptors were 0.066 µM and 0.106 µM, respectively. For `Cc1ccc([C@H](C)NC(=O)COc2cc(C)c3c(-c4cn(C)cn4)nn(C)c3n2)cc1` [Example 4.13, (S)-2-(1,4-dimethyl-3-(1-methyl-1H-imidazol-4-yl)-1H-pyrazolo[3,4-b]pyridin-6-yloxy)-N-(1-p-tolylethyl)acetamide], in that order: 1.16 µM and 0.626 µM. On the same counts, the results for `Cn1nc(-c2ccccc2)c2c(C(F)(F)F)cc(OCC(=O)NC3CCCC3)nc21` [Example 1.10, N-cyclopentyl-2-(1-methyl-3-phenyl-4-(trirfluoromethyl)-1H-pyrazolo[3,4-b]pyridin-6-yloxy)acetamide] are 0.65 µM and 0.324 µM. For the molecule `Cc1cc(OCC(=O)NCc2ccc3c(c2)OCO3)nc2c1c(-c1ccccc1)nn2C` [Example 1.15, N-(benzo[d][1,3]dioxol-5-ylmethyl)-2-(1,4-dimethyl-3-phenyl-1H-pyrazolo[3,4-b]pyridin-6-yloxy)acetamide], the inhibition at 10 µM on human orexin 1 receptors came out at 44%; at human orexin 2 receptors it was 39%. Take `Cc1ccc([C@H](C)NC(=O)COc2cc(C)c3c(-c4cncn4C)nn(C)c3n2)cc1` [Example 4.11, (S)-2-(1,4-dimethyl-3-(1-methyl-1H-imidazol-5-yl)-1H-pyrazolo[3,4-b]pyridin-6-yloxy)-N-(1-p-tolylethyl)acetamide]: the Ki on human orexin 1 receptors was found to be 4.33 µM; on human orexin 2 receptors it was 1.63 µM. Turning to `CC(C)c1noc(C(C)NC(=O)COc2cc(C(F)(F)F)c3c(-c4ccccc4)nn(C)c3n2)n1` (stereo not drawn) [Example 1.36, N-(1-(3-isopropyl-1,2,4-oxadiazol-5-yl)ethyl)-2-(1-methyl-3-phenyl-4-(trifluoromethyl)-1H-pyrazolo[3,4-b]pyridin-6-yloxy)acetamide], on human orexin 1 receptors, the Ki worked out at 3.36 µM. Further, on human orexin 2 receptors, the inhibition at 10 µM is 30%.

Take `C[C@H](NC(=O)COc1cc(C(F)(F)F)c2c(-c3ccccc3)n[nH]c2n1)c1ccccc1` [Example 1.2, (S)-2-(3-phenyl-4-(trifluoromethyl)-1H-pyrazolo[3,4-b]pyridin-6-yloxy)-N-(1-phenylethyl)acetamide]: the inhibitory constant (Ki) stood at 0.2 µM on human orexin 1 receptors and 0.043 µM on human orexin 2 receptors. Regarding `CC(NC(=O)COc1cc(C(F)(F)F)c2c(-c3ccccc3)nn(C)c2n1)c1ccccn1` (stereo not drawn) [Example 1.29, 2-(1-methyl-3-phenyl-4-(trifluoromethyl)-1H-pyrazolo[3,4-b]pyridin-6-yloxy)-N-(1-(pyridin-2-yl)ethyl)acetamide], at human orexin 1 receptors, the Ki was determined as 2.67 µM. Further, on human orexin 2 receptors, the inhibition at 10 µM amounted to 44%. With `COc1ccc(C(C)NC(=O)COc2cc(C)c3c(-c4cc(C)oc4C)nn(C)c3n2)cn1` (stereo not drawn) [Example 6.32, 2-(3-(2,5-dimethylfuran-3-yl)-1,4-dimethyl-1H-pyrazolo[3,4-b]pyridin-6-yloxy)-N-(1-(6-methoxypyridin-3-yl)ethyl)acetamide], the results for the Ki at human orexin 1 receptors and on human orexin 2 receptors were 0.845 µM and 0.95 µM, respectively. Take `COc1ccccc1[C@H](C)NC(=O)COc1cc(C)c2c(C3CC3)nn(C)c2n1` [Example 7.13, (S)-2-(3-cyclopropyl-1,4-dimethyl-1H-pyrazolo[3,4-b]pyridin-6-yloxy)-N-(1-(2-methoxyphenyl)ethyl)acetamide]: the Ki amounted to 1.54 µM at human orexin 1 receptors and 0.45 µM on human orexin 2 receptors. Consider `Cc1ccc([C@H](C)NC(=O)COc2ccc3c(C4CC4)nn(C)c3n2)cc1` [Example 6.23, (S)-2-(3-cyclopropyl-1-methyl-1H-pyrazolo[3,4-b]pyridin-6-yloxy)-N-(1-p-tolylethyl)acetamide], for which the Ki on human orexin 1 receptors was 1.1 µM; on human orexin 2 receptors it was 0.237 µM.

`COc1ccc(C(C)(C)NC(=O)COc2cc(C)c3c(C4CC4)nn(C)c3n2)cc1` [Example 6.62, 2-(3-cyclopropyl-1,4-dimethyl-1H-pyrazolo[3,4-b]pyridin-6-yloxy)-N-(2-(4-methoxyphenyl)propan-2-yl)acetamide]: the inhibition constant (Ki) was 0.626 µM on human orexin 1 receptors and 0.16 µM on human orexin 2 receptors.

In the case of `Cc1cccnc1CNC(=O)COc1cc(C)c2c(C3CC3)nn(C)c2n1` [Example 7.18, 2-(3-cyclopropyl-1,4-dimethyl-1H-pyrazolo[3,4-b]pyridin-6-yloxy)-N-((3-methylpyridin-2-yl)methyl)acetamide], the inhibition at 10 µM on human orexin 1 receptors is under 10%; on human orexin 2 receptors it was 11%. As to `Cc1n[nH]c(C)c1[C@@H](C)NC(=O)COc1cc(C(F)(F)F)c2c(-c3ccccc3)nn(C)c2n1` [Example 1.62, (R)-N-(1-(3,5-dimethyl-1H-pyrazol-4-yl)ethyl)-2-(1-methyl-3-phenyl-4-(trifluoromethyl)-1H-pyrazolo[3,4-b]pyridin-6-yloxy)acetamide], the inhibition at 10 µM at human orexin 2 receptors came to 36%.

Turning to `C[C@H](NC(=O)COc1cc(C(F)(F)F)c2c(C(C)(C)C)nn(C)c2n1)c1ccccc1` [Example 1.37, (S)-2-(3-tert-butyl-1-methyl-4-(trifluoromethyl)-1H-pyrazolo[3,4-b]pyridin-6-yloxy)-N-(1-phenylethyl)acetamide], the Ki amounted to 1.95 µM on human orexin 1 receptors and 0.298 µM at human orexin 2 receptors. `COc1ccc([C@H](C)NC(=O)COc2cc(C)c3c(-c4cc(OC)cc(OC)c4)nn(C)c3n2)cc1` [Example 6.1, (S)-2-((3-(3,5-dimethoxyphenyl)-1,4-dimethyl-1H-pyrazolo[3,4-b]pyridin-6-yl)oxy)-N-(1-(4-methoxyphenyl)ethyl)acetamide]: the Ki at human orexin 2 receptors came out at 0.185 µM.

In the case of `COc1ccc2c(c1)CC[C@H]2NC(=O)COc1cc(C)c2c(C3CC3)nn(C)c2n1` [Example 6.4, (R)-2-(3-cyclopropyl-1,4-dimethyl-1H-pyrazolo[3,4-b]pyridin-6-yloxy)-N-(5-methoxy-2,3-dihydro-1H-inden-1-yl)acetamide], the Ki on human orexin 1 receptors was found to be 1.76 µM.

These data come from patent US8742106B2 (Novartis AG, priority 2009, dated 2014).
